Tested on: IL-1α
Assay: Inhibition of IL-1α induced by SDS in cultured epidermal keratinocytes (ELISA)
Assay type: cell-based
Settings: Homo sapiens, Keratinocyte; anti-inflammatory benchmark, HEK; read-out: IC50 in inhibiting SDS-induced IL-1α
Experimental: Normal human adult epidermal keratinocytes (HEK) and all cell culture supplies were obtained from Life Technologies Co. (Carlsbad, CA, USA). The cells were grown and then maintained in keratinocyte basal medium 154 ([…]) with added human keratinocyte growth supplements (HKGS) at 37° C. in an atmosphere of 5% CO2 and used between passages 2 to 4. For the experiments, HEK cells were trypsinized, seeded in 96-well plates, and grown to 80% confluence. Specific concentrations of SDS were used for induction of chemokines and cytokines in the cultured HEK cells. IL-1α was induced with 25 μg/mL SDS. The cells were exposed for 16 hours to either SDS alone, or in combination with test articles at various concentrations in triplicates. After incubation, HEK cell supernatants were collected, and levels of interleukins were quantified using Quantikine® ELISA kits from R&D Systems Inc. IL-1α was quantified with catalogue number SLA50 kit. Percent (%) inhibition of IL-1α by the test articles were calculated by comparing to controls from non-SDS-induced cells considered as 0% and from SDS-induced cells considered as 100%. LDH assay using CytoscanTM LDH Assay kit (G-Biosciences Cat. No. 786-324) was performed on all HEK culture supernatants to make sure all tested concentrations had no cytotoxicity, and Kit-supplied lysis buffer was used as positive control.

IC50: 230 µg/mL
Compound: CC(=O)Oc1ccccc1C(=O)O [Aspirin]
